How the values were obtained:
[1] = test system: binding of TIM3-Fc to DV2 JAM particles; assay: ELISA: binding of TIM3-Fc to DV2 JAM coated particles in the presence of Annexin V; parameters: species or system human; settings: ANX5 0.31-20 μg/ml, TIM3-Fc 2 μg/ml
Experimental: (§1) Bar chart representing the amount of TIM3-Fc, CD300a-Fc or DV-SIGN-Fc bound to DV2 JAM particles in the presence of different concentration of Annexin V, a PtdSer specific ligand. DV2 JAM particles were coated in 96 well plates and incubated for one hour at +4° C. with various concentrations of the PtdSer specific ligand Annexin V before the addition of human IgG1-Fc, TIM3-Fc, CD300a-Fc or DV-SIGN-Fc (2 μg/ml). Bound Fcs were detected with a HRP conjugated rabbit pAb to human IgG (1/1000) and OPD substrate. Data are represented as mean±SD of three independent experiments performed in duplicates.
To identify whether CD300a recognized these phospholipids at the surface of virions, DV2 JAM coated particles were challenged with serially diluted concentrations of the PtdSer specific ligand AnnexinV (ANX5) (0.31-20 μg/ml, FIG. 14) or the PtdEth specific ligand Duramycin (0.625-5 μM, FIG. 15) before the addition of Fc coupled molecules.

[2] = molecular target: binding of CD300a-Fc to DV2 JAM particles (Homo sapiens, UniProt Q9UGN4); assay: ELISA: binding of CD300a-Fc to DV2 JAM coated particles in the presence of inhibitor; settings: for inhibition of the binding of CD300a to DV: ANX5 0.31-20 μg/ml or Duramycin 0.625-5 μM added before CD300a-Fc (2 μg/ml); for effect on CD300a-Fc binding to DV (in words): rat mAb 0.625 to 20 μg/ml, EDTA 1.25 to 25 mM mixed with Fc, ANX5, Duramycin added before Fc
Experimental: Graph representing the amount of CD300a-Fc bound by DV2 JAM coated particles in the presence of anti-CD300Ab. Serial dilutions of a rat mAb to CD300a or its IgG2a isotype were mixed with CD300a-Fc before incubation with DV2 JAM coated particles. Residual bound Fc was detected with a HRP conjugated rabbit pAb to human IgG (1/1000) and OPD substrat. Data are represented as mean±SD of three independent experiments performed in duplicates.
as §1
Bar chart representing the amount of CD300a-Fc or DV-SIGN-Fc bound to DV2 JAM particles in the presence of different concentration of Duramycin. DV2 JAM particles were coated in 96 well plates and incubated for one hour at +4° C. with various concentrations of the PtdEth specific ligand Duramycin before the addition of human IgG1-Fc, TIM3-Fc, CD300a-Fc or DV-SIGN-Fc (2 μg/ml). Bound Fcs were detected with a HRP conjugated rabbit pAb to human IgG (1/1000) and OPD substrate. Data are represented as mean±SD of three independent experiments performed in duplicates.
Bar chart representing the amount of CD300a-Fc bound by DV2 JAM coated particles in the presence of EDTA. Two fold serial dilutions of EDTA (1-25 mM) were mixed with CD300a-Fc before incubation with DV2 JAM coated particles. Bound Fcs were detected with a HRP conjugated rabbit pAb to human IgG (1/1000) and OPD substrate. Data shown are mean±SD of duplicates wells and representative of three independent experiments.
All ELISA were performed on Maxisorp 96 well plates (Nunc). PBS diluted DV particles (1.106 FIU) were coated overnight at 4° C. Coated 3-sn-phosphatidyl-Choline, -Ethanolamine or -Serine (10 μg/well, Sigma, Lyon, France) were diluted in ethanol and the wells air dried. Wells were saturated with TBS 1×, 10 mM CaCl2, 2% BSA for 2 h at 37° C. All dilutions were in TBS 1×, 10 mM CaCl2, washes in TBS 1×, 10 mM CaCl2, 0.5% Tween 20, and incubations, 1 h at 4° C. Annexin V or Duramycin were added previously to Fc chimera while EDTA was mixed with Fcs′. All Fcs' were 2 μg/ml. Bound Fcs' were detected with a pAb rabbit anti-human IgG-HRP and OPD substrate.

[3] = test system: binding of DC-SIGN-Fc to DV2 JAM particles; parameters: species or system human; settings: DV2 JAM coated particles; ANX5 0.31-20 μg/ml, Duramycin 0.625-5 μM, EDTA 1.25 to 25 mM
Experimental: All ELISA were performed on Maxisorp 96 well plates (Nunc). PBS diluted DV particles (1.106 FIU) were coated overnight at 4° C. […] Wells were saturated with TBS 1×, 10 mM CaCl2, 2% BSA for 2 h at 37° C. All dilutions were in TBS 1×, 10 mM CaCl2, washes in TBS 1×, 10 mM CaCl2, 0.5% Tween 20, and incubations, 1 h at 4° C. Annexin V or Duramycin were added previously to Fc chimera while EDTA was mixed with Fcs′. All Fcs' were 2 μg/ml. Bound Fcs' were detected with a pAb rabbit anti-human IgG-HRP and OPD substrate.

Chain of binding of CD300a-Fc to DV2 JAM particles (Q9UGN4 with tags, fused parts or gaps limits assumed): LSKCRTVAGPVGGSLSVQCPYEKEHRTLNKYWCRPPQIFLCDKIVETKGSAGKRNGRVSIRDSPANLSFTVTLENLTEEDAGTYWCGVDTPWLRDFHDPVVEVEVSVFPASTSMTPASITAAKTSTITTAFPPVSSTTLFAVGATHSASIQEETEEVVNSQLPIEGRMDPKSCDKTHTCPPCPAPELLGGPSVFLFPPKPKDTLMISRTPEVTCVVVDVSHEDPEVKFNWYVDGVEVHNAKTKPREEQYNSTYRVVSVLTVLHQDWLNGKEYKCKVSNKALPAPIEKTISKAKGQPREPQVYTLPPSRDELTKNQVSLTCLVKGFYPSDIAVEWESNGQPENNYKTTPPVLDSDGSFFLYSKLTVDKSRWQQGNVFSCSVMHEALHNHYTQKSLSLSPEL

Substance | binding of TIM3-Fc to DV blocked [1] | inhibition of the binding of CD300a to DV [2] | effect on CD300a-Fc binding to DV (in words) [2] | effect on DV/DC-SIGN-Fc binding (in words) [3]
Annexin V [ANX5] | up to 60% | up to 35% | inhibited in a concentration dependent manner | left unchanged
Duramycin [reference compound] |  | up to 98% | inhibited in a concentration dependent manner | left unchanged
